Structures are written as SMILES.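 Briefly, cells in 96-well plates were exposed to five compound concentrations for 48 h, and endpoints were estimated by linear interpolation. Here, GI50 denotes the concentration required for 50% inhibition of growth.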 Calls of active or inactive are those of the source. No stated cut-off is given here; in the data, active = GI50 up to about 1.1 µM and inactive = higher. A value given as a limit tells only on which side of the number the result lay.

Consider 13 molecules from ChEMBL document CHEMBL1201862, “PubChem BioAssay data set” (2004).

Common to all, as to test: inhibition of tumour cell growth, NCI panel, 48 h
Assay [1] relates to M14.
In assay [2] the test system is HCT-15.
For assay [3], the system named is 786-0.
Assay [4] relates to PC-3.
Assay [5] concerns SNB-75.
The test system of assay [6] is UACC-257.
Assay [7] concerns Hs-578T.
Assay [8] deals with MCF7.
In assay [9] the test system is SNB-19.
In assay [10] the test system is SK-MEL-2.
For assay [11], the system named is NCI-H226.
The subject of assay [12] is MOLT-4.
The subject of assay [13] is SK-OV-3.
Assay [14] relates to IGROV-1.
For assay [15], the system named is OVCAR-5.
Assay [16] deals with UO-31.
The test system of assay [17] is HCC 2998.
Assay [18] has as its system T47D.

With `CN(CC(=O)O)Cc1c[nH]c2ccccc12`, the GI50 is > 100 µM (inactive) in assay [1]; above 100 µM in assay [2]; > 100 µM (inactive) in [3]; > 100 µM (inactive) in [4]; > 100 µM (inactive) in assay [5]; > 100 µM (inactive) in assay [6]. Also, the GI50 in assay [7], in assay [8], in [9], in assay [10], in assay [11] and in assay [12] was > 100 µM (inactive) each time. For the same molecule, the GI50 in [13], in assay [14], in assay [15] and in assay [16] was > 100 µM (inactive) each time.
With `O=c1c(Nc2ccccc2)cn(CCOc2ccccc2)c(=O)n1CCOc1ccccc1`, the GI50 in assay [1] is 70.5 µM (inactive); in [2], above 100 µM; in assay [3], 28.2 µM (inactive); in [17], 63.1 µM (inactive); in [4], 34.8 µM (inactive); in [6], 83.2 µM (inactive). For the same molecule, the GI50 in assay [7] is 17.6 µM (inactive); in [8], > 100 µM (inactive); in [9], 31.5 µM (inactive); in assay [12] it was > 100 µM (inactive); in assay [14], 36.3 µM (inactive); in [15] it was 57.5 µM (inactive). Besides, the GI50 in assay [16] was 44.4 µM (inactive).
Regarding `O=[N+]([O-])c1cccc([N+](=O)[O-])c1S(=O)(=O)c1ccccc1`, the GI50 in assay [1] was 2.27 µM (inactive); in assay [2] it was 1.92 µM; in [3], 2.09 µM (inactive); in assay [4], 11.9 µM (inactive); in assay [18], 2.13 µM (inactive); in assay [6] it was 13.2 µM (inactive). For the same molecule, the GI50 in assay [7] is 20.8 µM (inactive); in assay [8], 5.87 µM (inactive); in assay [9], 18.3 µM (inactive); in assay [11] it was 12.2 µM (inactive); in [12], 3.38 µM (inactive); in [13], 16.8 µM (inactive). The GI50 in assay [14] is 1.89 µM (inactive); in assay [15], 3.66 µM (inactive); in [16] it was 1.86 µM (inactive).
Turning to `CSc1nnc(SC)nn1`, the GI50 in assay [1] was 15.5 µM (inactive); in assay [2] it was 19.2 µM; in assay [3], 13.8 µM (inactive); in assay [4], 18.5 µM (inactive); in assay [5], 17.4 µM (inactive); in assay [18], 2.76 µM (inactive). The GI50 in assay [6] is 16.6 µM (inactive); in assay [7], 27.2 µM (inactive); in assay [8], 17 µM (inactive); in assay [9], 20.7 µM (inactive); in assay [11] it was 32.4 µM (inactive); in [12] it was 0.438 µM (active). The GI50 in [13] is 21.4 µM (inactive); in [14] it was 16.3 µM (inactive); in assay [15], 18.1 µM (inactive); in assay [16], 15.5 µM (inactive).
As to `Cc1ccc2c(c1)CC1(Cc3cccc(C)c3C1=O)C2=O` (stereo unspecified), the GI50 was 64.4 µM (inactive) in assay [1]; above 100 µM in assay [2]; > 100 µM (inactive) in [3]; > 100 µM (inactive) in assay [17]; > 100 µM (inactive) in [4]; > 100 µM (inactive) in assay [5]. For the same molecule, the GI50 in [18] was > 10 µM (inactive); in assay [6] it was > 100 µM (inactive); in assay [7], 96.8 µM (inactive); in assay [8], > 10 µM (inactive); in assay [11] it was > 100 µM (inactive); in assay [12] it was 42.6 µM (inactive). For the same molecule, the GI50 in assay [13] is 88.5 µM (inactive); in [14], > 100 µM (inactive); in [15], 37.3 µM (inactive); in assay [16] it was 20.9 µM (inactive).
In the case of `C/C(=C/CNc1ncnc2c1ncn2CCC#N)CO`, the GI50 in assay [1], in assay [3], in assay [17], in [4], in assay [5] and in [18] was > 100 µM (inactive) throughout. For the same molecule, the GI50 in [6], in assay [7], in assay [8], in assay [9], in [11] and in assay [12] was > 100 µM (inactive) throughout. Further, the GI50 in [13], in assay [14], in assay [15] and in assay [16] was > 100 µM (inactive) throughout.
`Cn1/c(=N\S(=O)(=O)c2ccccc2)[nH]c2ccccc21`: the GI50 in assay [1] was > 100 µM (inactive); in [2] it was above 100 µM; in [3], > 100 µM (inactive); in assay [17], > 100 µM (inactive); in assay [5], > 100 µM (inactive); in assay [18], > 100 µM (inactive). Further, the GI50 in assay [6], in assay [7], in assay [8], in assay [9], in assay [11] and in assay [12] was > 100 µM (inactive) each time. The GI50 in assay [13], in [14], in assay [15] and in [16] was > 100 µM (inactive) throughout.
For the molecule `O=C(O)c1ccc(C(O)(c2ccccc2)c2ccccc2)cc1`, the GI50 in assay [1] is > 100 µM (inactive); in assay [2], above 100 µM; in assay [3], > 100 µM (inactive); in [4], > 100 µM (inactive); in [18] it was > 100 µM (inactive); in assay [6], > 100 µM (inactive). Moreover, the GI50 in assay [7], in assay [8], in assay [9], in [12], in [13] and in assay [14] was > 100 µM (inactive) each time. The GI50 in assay [15] and in assay [16] was > 100 µM (inactive) throughout.
In the case of `CC1(CF)SCc2nc3ccccc3n21` (stereo unspecified), the GI50 was > 100 µM (inactive) in assay [1]; above 100 µM in assay [2]; > 100 µM (inactive) in [3]; > 100 µM (inactive) in assay [17]; > 100 µM (inactive) in assay [4]; > 100 µM (inactive) in assay [5]. Further, the GI50 in assay [18], in assay [6], in assay [7], in assay [8], in [9] and in [11] was > 100 µM (inactive) in each case. Also, the GI50 was > 100 µM (inactive) in assay [13], > 100 µM (inactive) in assay [14], > 100 µM (inactive) in assay [15] and 81.1 µM (inactive) in [16].
As to `COC1/C=C/C(C)C(C(C)C(OC)C(C)CCC(=O)C(C)C(CC(=O)O)OC)OC(=O)/C=C/C=C(\C)CC(OC)C(OC)C2=CC(=O)O[C@@H](C(C)C(OC)CC(OC)/C=C/C(C)C(O)C1)[C@H]2O` (stereo partly specified), the GI50 is 0.0286 µM (active) in assay [1]; 0.0611 µM in assay [2]; 0.0223 µM (active) in [3]; 0.0631 µM (active) in [17]; 0.0382 µM (active) in [4]; 0.0311 µM (active) in assay [5]. In addition, the GI50 in [18] was 0.135 µM (active); in assay [6], 0.0993 µM (active); in assay [8] it was 0.0715 µM (active); in assay [9] it was 0.217 µM (active); in assay [10] it was 0.198 µM (active); in assay [11], 0.0336 µM (active). Further, the GI50 in [12] was 0.106 µM (active); in [13] it was 0.0879 µM (active); in [14] it was 0.0129 µM (active); in [15], 0.265 µM (active); in assay [16], 0.0382 µM (active).
`CCNC(=O)Nc1ccccn1`: the GI50 in assay [1] is > 100 µM (inactive); in [3], > 100 µM (inactive); in [17], > 100 µM (inactive); in assay [4], > 100 µM (inactive); in assay [5] it was 84.5 µM (inactive); in assay [18] it was > 100 µM (inactive). Further, the GI50 in [6], in assay [7], in [8], in assay [9], in assay [11] and in assay [12] was > 100 µM (inactive) throughout. The GI50 in assay [13], in [14], in [15] and in assay [16] was > 100 µM (inactive) in each case.
In the case of `O=S(=O)(O)c1ccc(/N=N/c2ccc(/N=N/c3c(O)ccc4cc(S(=O)(=O)O)ccc34)cc2)cc1`, the GI50 in assay [1] is > 100 µM (inactive); in [2], above 100 µM; in [3] it was > 100 µM (inactive); in assay [17], > 100 µM (inactive); in [4], > 100 µM (inactive); in assay [5], > 100 µM (inactive). In addition, the GI50 in [6], in assay [7], in assay [8], in assay [9], in assay [10] and in assay [11] was > 100 µM (inactive) in each case. Besides, the GI50 was > 100 µM (inactive) in assay [12]; > 100 µM (inactive) in [13]; > 100 µM (inactive) in [14]; > 100 µM (inactive) in assay [15]; 53.3 µM (inactive) in assay [16].
Regarding `CC(=O)Nc1ccc(S(=O)(=O)Nc2nnc(S(N)(=O)=O)s2)cc1`, the GI50 in assay [1] was > 100 µM (inactive); in assay [2] it was above 100 µM; in assay [3], > 100 µM (inactive); in assay [17], > 100 µM (inactive); in assay [5], > 100 µM (inactive); in assay [18] it was > 100 µM (inactive). Besides, the GI50 in assay [8], in assay [9], in assay [11], in assay [12], in assay [13] and in [15] was > 100 µM (inactive) in each case. Besides, the GI50 in assay [16] is > 100 µM (inactive).
